# Test results taken from patent US8354447B2, “mGLU receptors antagonists for treating disorders associated with mGLU receptors including addiction and depression” (The Scripps Research Institute, priority 2002, dated 2013).
# Structures can show the parent of a compound that is named as a salt. Where two headings read alike, the source gives them in different places.
# Experiments:
# male Wistar rats [1] = test: ICSS reward thresholds under baseline conditions, bupropion; type: in vivo, rat; details: bupropion 10-60 mg/kg IP, all doses tested, dose-dependent up to 40 mg/kg
# Method: For each quarter turn, subjects received a 500 ms train of 0.1 ms cathodal square wave pulses at a frequency of 100 Hz. After successful acquisition of the response, defined as 200 consecutive reinforcements within allotted time period (usually <20 min) subjects were trained on a modification of the Kornetsky and Esposito discrete-trial currentthreshold procedure (Kornetsky and Esposito 1979), as described previously by Markou and Koob (1992).
# Trials began with an electrical stimulus followed by a 7.5-s response window within which the animal could make a response to receive a second contingent stimulus identical to the initial noncontingent stimulus. A response during this 7.5-s window was considered a positive response, whereas the lack of a response was considered a negative response. Additional responses during a 2-s period immediately following a positive response had no consequence. The intertrial interval (ITI) that followed either a positive response or the end of the response window (in the case of a negative response) ranged from 7.5 to 12.5 s with an average duration of 10 s. […] Subjects then were tested on a current-threshold procedure in which stimulus intensities were varied during four alternating descending and ascending series with a step size of 5 mA. […]
# male Wistar rats [2] = test: ICSS thresholds during and after withdrawal from chronic nicotine, bupropion; type: in vivo, rat
# Excerpt: Trials began with an electrical stimulus followed by a 7.5-s response window within which the animal could make a response to receive a second contingent stimulus identical to the initial noncontingent stimulus. A response during this 7.5-s window was considered a positive response, whereas the lack of a response was considered a negative response. Additional responses during a 2-s period immediately following a positive response had no consequence. The intertrial interval (ITI) that followed either a positive response or the end of the response window (in the case of a negative response) ranged from 7.5 to 12.5 s with an average duration of 10 s. […] Subjects then were tested on a current-threshold procedure in which stimulus intensities were varied during four alternating descending and ascending series with a step size of […]. Blocks of three trials were offered at each current step with the starting current of the first descending series set at […] above the subjects' individual baseline thresholds estimated at the end of preliminary training. […] An ascending series was terminated after two consecutive blocks of trials during which the animal made positive responses on at least two out of the three trials or after 15 successive increments were presented. The mean of the four current thresholds from the alternating series was defined as the subject's ICSS threshold for that session. A series was terminated after either 15 stimulus increments (or decrements) had occurred, or after the determination of the threshold for the series (see below). Each test session typically lasted 30 min.
# Naive animals were prepared with osmotic minipumps containing either an individualized nicotine solution (3.16 mg/kg per day, free base) or saline. […] After implantation of the minipumps, thresholds were assessed daily thereafter to assess the effects of chronic nicotine exposure on reward thresholds. Seven days (exactly seven 24-h periods) after pump insertion, the pumps were removed in order to precipitate the nicotine withdrawal syndrome. ICSS thresholds were measured 12, 18, 24, 36, 48 and 72 h after pump removal. Animals were injected with bupropion (0, 10, 20, 40 mg/kg IP; n=8-11) 30 min prior to the 18-h time point.
# male Wistar rats [3] = test: Somatic signs of the nicotine withdrawal syndrome; type: in vivo, rat; details: for total number of somatic signs: 24 h post pump removal, 12.5 h postbupropion
# Method: Rats were placed individually in transparent plastic cylindrical containers (30×38 cm) in which they could move freely. Subjects were habituated to the containers for 10 min each day over 3 days before the first test session. During the test sessions the rats were observed blindly by an experienced observer for 10 min and the frequency of the following signs was recorded based on a checklist of nicotine abstinence signs (Hildebrand et al. 1999; Watkins et al. 2000; Malin 2001): body shakes, chews, cheek tremors, escape attempts, eye blinks, foot licks, gasps, genital licks, head shakes, ptosis, scratches, teeth chattering, writhes and yawns. Multiple successive counts of any sign required a distinct pause between episodes. Ptosis, if present continuously, was only counted once per minute. For statistical analyses, the total number of somatic signs was defined as the sum of individual occurrences of the above mentioned withdrawal signs. Further, the categories of “abdominal constrictions” included gasps and writhes; “facial fasciculation” included cheek tremors, chews, and teeth chattering; and “miscellaneous other signs” included shakes, escape attempts, licks, scratches, and yawns.
# Separate drug-naive rats were prepared with osmotic minipumps containing nicotine (3.16 mg/kg per day for 7 days) dissolved in saline. […] Further, this nicotine dose was selected to allow direct comparison of the effects of bupropion on somatic signs (present experiment 4) and on reward threshold elevations (experiment 3 described above) observed during nicotine withdrawal. To induce the somatic signs of nicotine withdrawal the minipumps were removed 6 days and 18 h after implantation. The behavioral observations were conducted 6, 12 and 24 h after the removal of the minipumps. The rats were injected with bupropion (0, 5, 10, 20, 40 mg/kg, IP; n=6-8), 30 min prior to the 12-h time point. The selection of the time points was based on the time-course of the expression of the somatic signs after the termination of nicotine exposure (Epping-Jordan et al. 1998; Harrison et al. 2001a; Semenova and Markou 2003; Skjei and Markou 2003).
# male Wistar rats [4] = test system: male Wistar rats
# Excerpt: Trials began with an electrical stimulus followed by a 7.5-s response window within which the animal could make a response to receive a second contingent stimulus identical to the initial noncontingent stimulus. A response during this 7.5-s window was considered a positive response, whereas the lack of a response was considered a negative response. Additional responses during a 2-s period immediately following a positive response had no consequence. The intertrial interval (ITI) that followed either a positive response or the end of the response window (in the case of a negative response) ranged from 7.5 to 12.5 s with an average duration of 10 s. […] Subjects then were tested on a current-threshold procedure in which stimulus intensities were varied during four alternating descending and ascending series with a step size of 5 mA. Blocks of three trials were offered at each current step with the starting current of the first descending series set at 30-40 mA above the subjects' individual baseline thresholds estimated at the end of preliminary training. […] An ascending series was terminated after two consecutive blocks of trials during which the animal made positive responses on at least two out of the three trials or after 15 successive increments were presented. The mean of the four current thresholds from the alternating series was defined as the subject's ICSS threshold for that session. A series was terminated after either 15 stimulus increments (or decrements) had occurred, or after the determination of the threshold for the series (see below). Each test session typically lasted 30 min.
# dopamine transporter = molecular target: T1, dopamine transporter (Homo sapiens, UniProt Q01959); details: therapeutically effective doses, humans (Meyer et al. 2002); cited from earlier work
# T1 construct: host or cells: living human brain (in vivo imaging)
# rats = details: 28-day treatment, 20 mg/kg (McCarter and Kokkinidis 1988); cited from earlier work
# T1 sequence (Q01959 whole entry): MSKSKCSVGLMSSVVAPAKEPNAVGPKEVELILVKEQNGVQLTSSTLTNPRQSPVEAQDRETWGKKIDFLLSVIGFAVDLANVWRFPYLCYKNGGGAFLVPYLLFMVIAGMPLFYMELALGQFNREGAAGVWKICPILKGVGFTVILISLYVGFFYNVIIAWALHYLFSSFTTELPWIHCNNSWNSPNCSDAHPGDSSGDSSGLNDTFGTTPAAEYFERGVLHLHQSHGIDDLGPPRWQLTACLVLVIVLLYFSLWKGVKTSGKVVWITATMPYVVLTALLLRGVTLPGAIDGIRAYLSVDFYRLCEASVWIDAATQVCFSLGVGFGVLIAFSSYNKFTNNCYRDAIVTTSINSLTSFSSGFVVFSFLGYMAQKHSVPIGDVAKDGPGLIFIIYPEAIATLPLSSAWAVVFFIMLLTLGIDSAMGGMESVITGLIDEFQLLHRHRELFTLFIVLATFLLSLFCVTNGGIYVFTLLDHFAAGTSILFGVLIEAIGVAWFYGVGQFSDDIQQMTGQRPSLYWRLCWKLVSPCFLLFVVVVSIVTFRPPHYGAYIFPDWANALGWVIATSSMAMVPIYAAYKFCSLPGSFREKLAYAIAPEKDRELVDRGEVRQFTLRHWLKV
structure (smiles),measurement,setting,value
"CC(NC(C)(C)C)C(=O)c1cccc(Cl)c1 (stereo not drawn) [bupropion, Bupropion hydrochloride]",brain reward thresholds,male Wistar rats [1],lowered brain reward thresholds compared to the vehicle conditions
same,"area under the curve of the threshold data, 72-h withdrawal period","male Wistar rats [2]; bupropion 40 mg/kg, nicotine-pretreated animals",completely reversed
same,reward thresholds,"male Wistar rats [2]; bupropion 40 mg/kg, nicotine-pretreated animals, 24 h time point",still exhibited a significant (P<0.001) reduction in reward thresholds
same,reward thresholds,"male Wistar rats [2]; bupropion 10, 20, 40 mg/kg, thirty minutes after administration (18-h time point), nicotine- or saline-pretreated",significant and dose-dependent lowering of reward thresholds at all doses
same,reduction in threshold,"male Wistar rats [2]; bupropion, saline pretreated animals, 24 h",short-lived and completely reversed at the next time point tested
same,long-term effect on somatic signs,"male Wistar rats [3]; acute bupropion, 12.5 h",has no long-term (12.5 h) effect on the expression of the somatic signs of nicotine withdrawal
same,total number of somatic signs,male Wistar rats [3]; bupropion 5 mg/kg,18.6±4
same,total number of somatic signs,male Wistar rats [3]; bupropion 10 mg/kg,17.1±4.6
same,total number of somatic signs,male Wistar rats [3]; bupropion 20 mg/kg,14.1±2.2
same,total number of somatic signs,male Wistar rats [3]; bupropion 40 mg/kg,14.6±2.6
same,abdominal constrictions (writhes and gasps),"male Wistar rats [3]; bupropion 10-40 mg/kg, 12-h withdrawal time point",reversed the withdrawal-induced increase in abdominal constrictions
same,total somatic signs,"male Wistar rats [3]; bupropion 20-40 mg/kg, 30 min prior to the 12-h withdrawal timepoint",resulted in a reversal of the expression of total somatic signs
same,brain reward thresholds,male Wistar rats [4]; bupropion 5 mg/kg alone,without effect on reward thresholds when given alone
same,reward-enhancing effects of acute nicotine,male Wistar rats [4]; bupropion 5 mg/kg with nicotine 0.25 mg/kg,completely reversed the reward-enhancing effects of acute nicotine
same,brain reward thresholds,male Wistar rats [4]; bupropion 10 and 20 mg/kg in combination with nicotine 0.25 mg/kg,resulted in threshold lowerings that were not significantly different from threshold lowerings induced by nicotine administration alone
same,brain reward thresholds,"male Wistar rats [4]; bupropion 10 and 20 mg/kg, saline co-treated",lowered brain reward thresholds in animals that were co-treated with saline
same,occupancy at the dopamine transporter,dopamine transporter,22%
same,rate of responding for ICSS,rats,had no effect on the rate of responding for ICSS
